40 compounds from ChEMBL document CHEMBL3879915, “Methods of inhibiting PRMT5” (2014) can be followed below.

Bounds are passed on as bounds.

The target of assay [1] is PRMT5/MEP50 complex (Homo sapiens, UniProt O14744). The assay can be described thus: Inhibition of recombinant human fetal brain FLAG-tagged PRMT5/full length human testis 6His-tagged MEP50 expressed in baculovirus infected insect Sf9 cells using human histone H4 (1 to 15 residues) as substrate preincubated for 30 mins followed by [3H]-SAM addition.
PRMT5/MEP50 complex, sequence (O14744 whole entry, the tested form may be a part): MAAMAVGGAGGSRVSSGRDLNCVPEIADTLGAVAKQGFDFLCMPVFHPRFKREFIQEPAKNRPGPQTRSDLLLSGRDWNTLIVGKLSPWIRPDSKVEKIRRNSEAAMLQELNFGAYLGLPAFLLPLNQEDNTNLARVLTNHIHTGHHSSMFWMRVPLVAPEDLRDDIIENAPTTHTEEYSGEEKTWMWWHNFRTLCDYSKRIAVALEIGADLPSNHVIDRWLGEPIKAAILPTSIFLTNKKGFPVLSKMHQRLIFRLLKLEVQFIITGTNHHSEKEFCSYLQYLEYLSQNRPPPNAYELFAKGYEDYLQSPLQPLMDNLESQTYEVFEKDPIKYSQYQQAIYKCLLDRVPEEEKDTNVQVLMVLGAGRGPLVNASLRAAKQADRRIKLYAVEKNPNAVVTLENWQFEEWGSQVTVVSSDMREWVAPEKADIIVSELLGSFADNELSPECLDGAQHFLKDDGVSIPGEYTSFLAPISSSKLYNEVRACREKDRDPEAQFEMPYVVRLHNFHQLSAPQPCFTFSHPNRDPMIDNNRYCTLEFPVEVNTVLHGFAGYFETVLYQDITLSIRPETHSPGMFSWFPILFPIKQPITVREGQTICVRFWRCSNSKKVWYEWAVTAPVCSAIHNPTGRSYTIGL
PRMT5/MEP50 complex, sequence (Q9BQA1 whole entry, further chain, the tested form may be a part): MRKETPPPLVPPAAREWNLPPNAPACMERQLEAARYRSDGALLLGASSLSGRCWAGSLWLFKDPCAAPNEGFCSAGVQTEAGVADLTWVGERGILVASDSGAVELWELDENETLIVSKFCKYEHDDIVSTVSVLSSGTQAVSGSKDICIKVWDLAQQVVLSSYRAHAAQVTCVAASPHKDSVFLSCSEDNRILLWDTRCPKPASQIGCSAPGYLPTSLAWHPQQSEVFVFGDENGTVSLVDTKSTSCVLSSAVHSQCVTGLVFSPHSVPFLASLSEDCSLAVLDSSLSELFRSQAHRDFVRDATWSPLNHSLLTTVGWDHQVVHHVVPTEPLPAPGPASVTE
Assay [2] can be described thus: Antiproliferative activity against human Z138 cells assessed as inhibition of cell viability after 5 days by Cell-Titer Glo assay. In kind it is functional, cell-based. The note with it: Z-138, 120 h.
Assay [3] concerns the target Protein arginine N-methyltransferase 5 (Homo sapiens, UniProt O14744). The assay can be described thus: Inhibition of PRMT5 in human Z138 cells assessed as decrease in di-methyl arginine levels after 96 hrs by Western blot method. In kind it is cell-based.

Protein arginine N-methyltransferase 5, sequence (O14744 whole entry): as the sequence (O14744 whole entry, the tested form may be a part) above

Regarding `OC(COCc1ccc(Cl)cc1)CN1CCc2ccccc2C1` (configuration not stated), the 50% inhibitory concentration (IC50) in assay [1] is 1 to 10 µM. Regarding `OC(COCc1ccccc1)CN1CCc2ccccc2C1` (configuration not stated), the IC50 in assay [1] lay within 10 to 40 µM. For the same compound, in assay [2], the concentration giving a half-maximal response (EC50) is > 40 µM. Take `OC(COc1ccc2c(c1)OCO2)CN1CCc2ccccc2C1` (configuration not stated): in assay [1], the half-maximal inhibitory concentration (IC50) lay in the range of 1 to 10 µM. Also, the EC50 in assay [2] is > 20 µM. For `OC(COCC1COc2ccccc2O1)CN1CCc2ccccc2C1` (configuration not stated) the same measures were 0.101 to 40 µM and > 40 µM. As for `OC(COc1ccc(C2CCNCC2)cc1)CN1CCc2ccccc2C1` (configuration not stated), the IC50 in assay [1] is 1 to 10 µM. Besides, in assay [2], the EC50 lay within 10 to 40 µM. As to `OC(COc1cccc(CNC2CCCC2)c1)CN1CCc2ccccc2C1` (configuration not stated), the IC50 in assay [1] was in the range of 0.101 to 1 µM. Besides, the half-maximal effective concentration (EC50) in assay [2] fell in the range of 10 to 40 µM.

Take `CN1CCCCC1COCC(O)CN1CCc2ccccc2C1` (configuration not stated): in assay [1], the IC50 was > 40 µM. Further, in assay [2], the EC50 was > 40 µM.

Consider `CCC1c2ccccc2CCN1CC(O)COc1cccc(-c2ccc3ncn(C)c3c2)c1` (configuration not stated), for which, in assay [1], the IC50 lay in the range of 0.101 to 1 µM. The half-maximal effective concentration (EC50) in assay [2] was > 20 µM.

As for `OC(COC1CCCC1)CN1CCc2ccccc2C1` (configuration not stated), the concentration for half-maximal inhibition (IC50) in assay [1] was in the range of 1 to 10 µM.

On to `O=C(COCc1cccnc1)NCC(O)CN1CCc2ccccc2C1` (configuration not stated), for which the IC50 in assay [1] fell in the range of 1 to 10 µM.

Consider `O=C(COc1ccccc1)NCC(O)CN1CCc2ccccc2C1` (configuration not stated), for which, in assay [1], the concentration for half-maximal inhibition (IC50) lay within 0.101 to 1 µM. Also, the concentration giving a half-maximal response (EC50) in assay [3] lay in the range of 0.101 to 1 µM.

Consider `Cn1cncc1C(=O)Nc1cccc(OC[C@@H](O)CN2CCc3ccccc3C2)c1`, for which the IC50 in assay [1] fell in the range of 1 to 10 µM. Take `OC(COCC1CCCCC1)CN1CCc2ccccc2C1` (configuration not stated): the half-maximal inhibitory concentration (IC50) in assay [1] fell in the range of 1 to 10 µM. In addition, the concentration giving a half-maximal response (EC50) in assay [2] was > 40 µM. Take `O=C(Nc1ccccn1)c1cccc(OCC(O)CN2CCc3ccccc3C2)c1` (configuration not stated): the IC50 in assay [1] was in the range of 0.101 to 1 µM.

Take `OC(COc1cccc(CNC2CCCC2)c1)CN1Cc2ccccc2C1` (configuration not stated): the concentration for half-maximal inhibition (IC50) in assay [1] was in the range of 1 to 10 µM. Further, the half-maximal effective concentration (EC50) in assay [2] is 10 to 50 µM. For `CN1CCC(OCC(O)CN2CCc3ccccc3C2)CC1` (configuration not stated) the same measures were > 40 µM and > 40 µM. Turning to `O=C(COc1ccccc1N1CCOCC1)NC[C@@H](O)CN1CCc2ccccc2C1`, the half-maximal inhibitory concentration (IC50) in assay [1] lay within 0.101 to 1 µM. Moreover, in assay [3], the EC50 was in the range of 0.101 to 1 µM. Consider `O=C(COc1cccc2cccnc12)NC[C@@H](O)CN1Cc2ccccc2C1`, for which the IC50 in assay [1] was 1 to 10 µM. Take `CC(C)(C)OC(=O)N1CCC(OCC(O)CN2CCc3ccccc3C2)CC1` (configuration not stated): the half-maximal inhibitory concentration (IC50) in assay [1] lay within 1 to 10 µM. Further, the EC50 in assay [2] is > 40 µM. For `COc1cccc2c1CN(CC(O)COc1cccc(CNC3CCCC3)c1)CC2` (configuration not stated), the IC50 in assay [1] fell in the range of 10 to 40 µM. The EC50 in assay [2] lay in the range of 10 to 40 µM.

Take `OC(COCc1ccc(Cl)cc1Cl)CN1CCc2ccccc2C1` (configuration not stated): in assay [1], the IC50 lay within 1 to 10 µM. Take `CC(OCC(O)CN1CCc2ccccc2C1)c1cccnc1` (configuration not stated): the IC50 in assay [1] lay within 10 to 40 µM. Besides, in assay [2], the EC50 is > 40 µM. For `CN1CCN(c2ccccc2OCC(=O)NC[C@@H](O)CN2CCc3ccccc3C2)CC1`, the half-maximal inhibitory concentration (IC50) in assay [1] is 1 to 10 µM. The EC50 in assay [3] lay in the range of 1 to 10 µM.

For `OC(COCc1ccccn1)CN1CCc2ccccc2C1` (configuration not stated), in assay [1], the IC50 lay in the range of 10 to 40 µM.

Consider `OC(COC1Cc2ccccc2C1)CN1CCc2ccccc2C1` (configuration not stated), for which the concentration for half-maximal inhibition (IC50) in assay [1] lay within 1 to 10 µM. Moreover, in assay [2], the EC50 is > 40 µM.

Regarding `O=C(Nc1cccnc1)c1cccc(OCC(O)CN2CCc3ccccc3C2)c1` (configuration not stated), the IC50 in assay [1] was 1 to 10 µM. For `O[C@@H](COc1cccc(CNC2CCCC2)c1)CN1CCc2ccccc2C1`, the IC50 in assay [1] was in the range of 1 to 10 µM. Further, the EC50 in assay [2] lay within 10 to 40 µM.

On to `CC(C)(C)OC(=O)N1CCCC(OCC(O)CN2CCc3ccccc3C2)C1` (configuration not stated), for which the IC50 in assay [1] was in the range of 1 to 10 µM. Besides, the EC50 in assay [2] was > 40 µM. For the compound `COc1c(COCC(O)CN2CCc3ccccc3C2)ccc2ccccc12` (configuration not stated), the IC50 in assay [1] is 1 to 10 µM. As to `COc1cccc(COCC(O)CN2CCc3ccccc3C2)c1` (configuration not stated), in assay [1], the IC50 is 1 to 10 µM. Moreover, the EC50 in assay [2] was > 40 µM. With `Cn1cnc2ccc(NCC(=O)NCC(O)CN3CCc4ccccc4C3)cc21` (configuration not stated), the IC50 in assay [1] was in the range of 0.101 to 1 µM. The 50% effective concentration (EC50) in assay [3] was 1 to 10 µM. For the compound `CN(C)CCOc1ccccc1OCC(=O)NC[C@@H](O)CN1CCc2ccccc2C1`, the IC50 in assay [1] lay within 0.101 to 1 µM. Besides, the 50% effective concentration (EC50) in assay [3] lay in the range of 1 to 10 µM. Take `CC(C)(C)OC(=O)N1CCC(OCC(O)CN2CCc3ccccc3C2)C1` (configuration not stated): in assay [1], the IC50 is 1 to 10 µM. Take `O=S1(=O)CCN(c2ccc(OCC(O)CN3CCc4ccccc4C3)cc2)CC1` (configuration not stated): the IC50 in assay [1] lay within 1 to 10 µM. In assay [2], the 50% effective concentration (EC50) was > 20 µM. `O=c1cc(-c2ccccc2)ccn1C[C@@H](O)CN1CCc2ccccc2C1`: the EC50 in assay [3] is > 50 µM. For `OC(COCC1CC1)CN1CCc2ccccc2C1` (configuration not stated), the concentration for half-maximal inhibition (IC50) in assay [1] is 1 to 10 µM. In addition, the EC50 in assay [2] was > 40 µM. Turning to `OC(COCC1CCCO1)CN1CCc2ccccc2C1` (configuration not stated), the concentration for half-maximal inhibition (IC50) in assay [1] fell in the range of 10 to 40 µM. Further, in assay [2], the EC50 was > 40 µM. `OC(COC1CCCCCC1)CN1CCc2ccccc2C1` (configuration not stated): in assay [1], the concentration for half-maximal inhibition (IC50) was in the range of 1 to 10 µM. The EC50 in assay [2] was > 40 µM.

Turning to `OC(COCC1CCNC1)CN1CCc2ccccc2C1` (configuration not stated), the half-maximal inhibitory concentration (IC50) in assay [1] was > 40 µM. In addition, the concentration giving a half-maximal response (EC50) in assay [2] is > 40 µM. For `CN1CCCc2c(OCC(=O)NCC(O)CN3CCc4ccccc4C3)cccc21` (configuration not stated), in assay [1], the IC50 is 0.101 to 1 µM.
